Results on 14 compounds are retold here after US11285156B2, “Substituted piperazines as KRAS G12C inhibitors” (Amgen Inc., priority 2018, dated 2022).

Assay [1] concerns the target GDP-bound KRAS protein (aa 1-169), containing both G12C and C118A amino acid substitutions (Homo sapiens (Human), UniProt P01116, C118A/G12C). Description: Coupled nucleotide exchange assay (SOS-mediated nucleotide exchange, AlphaScreen). Type of assay: biochemical. The note with it: 5 min compound pre-incubation; for IC50: read-out: Coupled exchange IC50 (5 min; μM). (In general: Bead proximity is the source of the signal in Alpha formats.)

In assay [2] the test system is Phosphorylation of ERK1/2 in MIA PaCa-2 cells. Description: Phospho-ERK1/2 MSD assay in MIA PaCa-2 cells. Type of assay: cell-based. The note with it: read-out: p-ERK IC50 (2 h, MiaPaCa-2; μM). In a few lines:
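Phospho-ERK1/2 measured by MSD electrochemiluminescence kit in RIPA lysates of MIA PaCa-2 cells. Cells were treated with compound titrations for 2 or 4 h at 37 °C, 5% CO2, followed by a 10 min pulse of 10 ng/mL EGF.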

The subject of assay [3] is Phosphorylation of ERK1/2 in A549 cells. The experiment in a line: Phospho-ERK1/2 MSD assay in A549 cells. Conditions: read-out: p-ERK IC50 (2 h, A549; μM). The class given is cell-based. In a few lines: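 Readout: MSD phospho-ERK1/2 signal after compound (2 or 4 h) and 10 min EGF stimulation at 10 ng/mL.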
[4] abbreviates: Homo sapiens, MIA PaCa-2, 2 h, 2 h compound treatment, MIA PaCa-2 cells, EGF stimulated.
Setting [5] is: Homo sapiens, A549, 2 h, 2 h compound treatment, A549 cells, EGF stimulated.
The mark [6] stands for this setting: 2 h compound treatment, MIA PaCa-2 cells, EGF stimulated.
The mark [7] stands for this setting: 2 h compound treatment, A549 cells, EGF stimulated.

Where two headings read alike, the source gives them in different places. Where only a bound is given, the exact number is not on record here.

Chain of GDP-bound KRAS protein (aa 1-169), containing both G12C and C118A amino acid substitutions (P01116 other isoform, or with tags, fused parts or gaps G12C/C118A): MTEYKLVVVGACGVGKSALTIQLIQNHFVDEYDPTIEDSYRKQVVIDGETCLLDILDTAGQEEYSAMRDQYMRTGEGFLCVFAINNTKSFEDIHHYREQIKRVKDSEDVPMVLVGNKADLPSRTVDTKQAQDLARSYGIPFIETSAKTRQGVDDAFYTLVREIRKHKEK

For the compound `[2H]C1([2H])CN(c2nc(=O)n(-c3c(C)ccnc3C(C)C)c3nc(-c4c(O)cccc4F)c(F)cc23)CC([2H])([2H])N1C(=O)C=C` (atropisomer, axis not shown; (M)) [Example 72-20, (M)-6-Fluoro-7-(2-fluoro-6-hydroxy-phenyl)-1-(2-isopropyl-4-methyl-3-pyridyl)-4-(3,3,5,5-tetradeuterio-4-prop-2-enoyl-piperazin-1-yl)pyrido[2,3-d]pyrimidin-2-one], the “Coupled exchange IC50 (5 min; μM)” value in assay [1] was found to be 0.382 µM. The results for the IC50 in assay [2] (setting [4]) and in assay [3] (setting [5]) were 0.223 µM and greater than 7.5 µM, respectively.
As to `[2H]C1([2H])CN(C(=O)C=C)CC([2H])([2H])N1c1nc(=O)n(-c2c(C)ccnc2C(C)C)c2nc(-c3c(O)cccc3F)c(F)cc12` (atropisomer, axis not shown; (M)) [Example 72-21, (M)-6-Fluoro-7-(2-fluoro-6-hydroxy-phenyl)-1-(2-isopropyl-4-methyl-3-pyridyl)-4-(2,2,6,6-tetradeuterio-4-prop-2-enoyl-piperazin-1-yl)pyrido[2,3-d]pyrimidin-2-one], the “Coupled exchange IC50 (5 min; μM)” value in assay [1] was 0.468 µM. In addition, the IC50 was 0.306 µM in assay [2] (setting [4]) and greater than 7.5 µM in assay [3] (setting [5]).
In the case of `C=CC(=O)N1C[C@H](C)N(c2nc(=O)n(-c3c(C)ccnc3C(C)C)c3nc(-c4ccccc4C(C)C)c(Cl)cc23)C[C@H]1C` (atropisomer, axis not shown; (M)) [Example 92-1, (M)-6-Chloro-4-[(2S,5R)-2,5-dimethyl-4-prop-2-enoyl-piperazin-1-yl]-1-(2-isopropyl-4-methyl-3-pyridyl)-7-(2-isopropylphenyl)pyrido[2,3-d]pyrimidin-2-one], the IC50 in assay [1] is 0.016 µM; in assay [2] (setting [6]), 0.014 µM; in assay [3] (setting [7]), greater than 7.5 µM.
On the same counts, the results for `C=CC(=O)N1CCN(c2nc(=O)n(-c3c(C)ccnc3C(C)C)c3nc(-c4c(N)cccc4F)c(Cl)cc23)C[C@H]1C` (atropisomer, axis not shown; (M)) [Example 92-2, (M)-7-(2-Amino-6-fluoro-phenyl)-6-chloro-1-(2-isopropyl-4-methyl-3-pyridyl)-4-[(3R)-3-methyl-4-prop-2-enoyl-piperazin-1-yl]pyrido[2,3-d]pyrimidin-2-one] are 0.024 µM, 0.035 µM and greater than 7.5 µM.
As to `C=CC(=O)N1C[C@H](C)N(c2nc(=O)n(-c3c(C)ccnc3C(C)C)c3nc(-c4ccsc4C)c(Cl)cc23)C[C@H]1C` (atropisomer, axis not shown; (M)) [Example 92-3, (M)-6-Chloro-4-[(2S,5R)-2,5-dimethyl-4-prop-2-enoyl-piperazin-1-yl]-1-(2-isopropyl-4-methyl-3-pyridyl)-7-(2-methyl-3-thienyl)pyrido[2,3-d]pyrimidin-2-one], the IC50 is 0.095 µM in assay [1], 0.094 µM in assay [2] (setting [4]) and greater than 7.5 µM in assay [3] (setting [5]).
For the compound `C=CC(=O)N1C[C@H](C)N(c2nc(=O)n(-c3c(C)ccnc3C(C)C)c3nc(-c4ccccc4C4CC4)c(Cl)cc23)C[C@H]1C` (atropisomer, axis not shown; (M)) [Example 92-4, (M)-6-Chloro-7-(2-cyclopropylphenyl)-4-[(2S,5R)-2,5-dimethyl-4-prop-2-enoyl-piperazin-1-yl]-1-(2-isopropyl-4-methyl-3-pyridyl)pyrido [2,3-d]pyrimidin-2-one], the results for the IC50 in assay [1], in assay [2] (setting [4]) and in assay [3] (setting [5]) were 0.044 µM, 0.042 µM and greater than 7.5 µM, respectively.
As for `C=CC(=O)N1C[C@H](C)N(c2nc(=O)n(-c3c(CC)ccnc3C(C)C)c3nc(-c4ccccc4F)c(Cl)cc23)C[C@H]1C` [Example 55-58, 6-Chloro-4-[(2S,5R)-2,5-dimethyl-4-prop-2-enoyl-piperazin-1-yl]-l-(4-ethyl-2-isopropyl-3-pyridyl)-7-(2-fluorophenyl)pyrido[2,3-d]pyrimidin-2-one], the IC50 in assay [2] (setting [4]) was 0.056 µM; in assay [3] (setting [5]) it was greater than 7.5 µM.
For `C=CC(=O)N1C[C@H](C)N(c2nc(=O)n(-c3c(C(C)C)cccc3C(C)C)c3nc(-c4ccccc4F)c(Cl)cc23)C[C@H]1C` [Example 102-1, 4-((2S,5R)-4-Acryloyl-2,5-dimethylpiperazin-1-yl)-6-chloro-1-(2,6-diisopropylphenyl)-7-(2-fluorophenyl)pyrido[2,3-d]pyrimidin-2(1H)-one], the IC50 in assay [2] (setting [4]) amounted to 0.395 µM; in assay [3] (setting [5]), 5.25 µM.
As for `C=CC(=O)N1C[C@H](C)N(c2nc(=O)n(-c3c(C(C)C)ccnc3C(C)C)c3nc(-c4ccccc4F)c(Cl)cc23)C[C@H]1C` [Example 102-3, 6-Chloro-1-(2,4-diisopropyl-3-pyridyl)-4-[(2S,5R)-2,5-dimethyl-4-prop-2-enoyl-piperazin-1-yl]-7-(2-fluorophenyl) pyrido[2,3-d]pyrimidin-2-one], the IC50 in assay [2] (setting [6]) is 0.032 µM; in assay [3] (setting [5]) it was greater than 7.5 µM.
Regarding `C=CC(=O)N1C[C@H](C)N(c2nc(=O)n(-c3c(C(C)C)cc(Br)nc3C(C)C)c3nc(-c4ccccc4F)c(Cl)cc23)C[C@H]1C` [Example 102-4, 1-(6-Bromo-2,4-diisopropyl-3-pyridyl)-6-chloro-4-[(2S,5R)-2,5-dimethyl-4-prop-2-enoyl-piperazin-1-yl]-7-(2-fluorophenyl) pyrido[2,3-d]pyrimidin-2-one], the IC50 in assay [2] (setting [4]) was 0.262 µM; in assay [3] (setting [5]) it was 4.73 µM.
On to `C=CC(=O)N1C[C@H](C)N(c2nc(=O)n(-c3c(C(C)C)ccnc3C(C)C)c3nc(-c4ccccc4F)c(Cl)cc23)C[C@H]1C` [Example 124-1, 6-Chloro-1-(2,4-diisopropyl-3-pyridyl)-4-[(2S,5R)-2,5-dimethyl-4-prop-2-enoyl-piperazin-1-yl]-7-(2-fluorophenyl)pyrido[2,3-d]pyrimidin-2-one], for which the values for the IC50 in assay [2] (setting [6]) and in assay [3] (setting [7]) were 0.024 µM and greater than 7.5 µM, respectively.
In the case of `C=CC(=O)N1C[C@H](C)N(c2nc(=O)n(-c3c(C(C)C)ccnc3C(C)C)c3nc(-c4ccccc4)c(Cl)cc23)C[C@H]1C` [Example 124-7, 6-Chloro-1-(2,4-diisopropyl-3-pyridyl)-4-[(2S,5R)-2,5-dimethyl-4-prop-2-enoyl-piperazin-1-yl]-7-phenyl-pyrido[2,3-d]pyrimidin-2-one], the IC50 in assay [2] (setting [4]) is 0.093 µM; in assay [3] (setting [5]) it was greater than 7.5 µM.
Taken in the same sequence, the figures for `C=CC(=O)N1C[C@H](C)N(c2nc(=O)n(-c3c(C(C)C)ccnc3C(C)C)c3nc(-c4ccccc4C(C)C)c(Cl)cc23)C[C@H]1C` [Example 124-8, 6-Chloro-1-(2,4-diisopropyl-3-pyridyl)-4-[(2S,5R)-2,5-dimethyl-4-prop-2-enoyl-piperazin-1-yl]-7-(2-isopropylphenyl)pyrido[2,3-d]pyrimidin-2-one] were 0.24 µM and 6.36 µM.
In the case of `C=CC(=O)N1C[C@H](C)N(c2nc(=O)n(-c3c(C(C)C)nc(CN(C)C)nc3C(C)C)c3nc(-c4ccccc4F)c(Cl)cc23)C[C@H]1C` [Example 160, 4-((2S,5R)-4-Acryloyl-2,5-dimethylpiperazin-1-yl)-6-chloro-1-(2-((dimethylamino)methyl)-4,6-diisopropylpyrimidin-5-yl)-7-(2-fluorophenyl)pyrido[2,3-d]pyrimidin-2(1H)-one], the IC50 in assay [2] (Homo sapiens, MIA PaCa-2, 2 h) is 0.058 µM; in assay [3] (Homo sapiens, A549, 2 h) it was greater than 7.5 µM.

Usually IC50 stands for the concentration that inhibits the measured activity by half.
